Values of other authors, collected in US20230126271A1, “DEGRADER-ANTIBODY CONJUGATES AND METHODS OF USING SAME” (Anglex, Inc., priority 2020, published 2023).

Columns and labels:
[1] = in vivo
[2] = in vivo; remark: listed apart in the source

| SMILES | toxicity in the clinic [1] | patients who experienced heart attacks while being treated [2] |
| --- | --- | --- |
| CN(C)CC#Cc1ccc(OCCCc2sc(N3CCc4cccc(C(=O)Nc5nc6ccccc6s5)c4C3)nc2C(=O)O)c(F)c1 [A115463] | on-target and dose-limiting thrombocytopenia |  |
| CC1(C)CCC(c2ccc(Cl)cc2)=C(CN2CCN(c3ccc(C(=O)NS(=O)(=O)c4ccc(N[C@H](CCN5CCOCC5)CSc5ccccc5)c(S(=O)(=O)C(F)(F)F)c4)cc3)CC2)C1 [ABT 263] | on-target and dose-limiting thrombocytopenia |  |
| COc1ccc(/C=C\c2cc(OC)c(OC)c(OC)c2)cc1OP(=O)(O)O [CA4P, Combretastatin] |  | seven |
